From patent publication US10770169B2, “Method of providing a treatment to a subject based on a dynamic pathway map” (THE REGENTS OF THE UNIVERSITY OF CALIFORNIA, priority 2010, dated 2020)
Entries after “also recorded” stand apart in the source; their conditions may differ.

Experiments:
[1] = test system: panel of 55 breast cancer cell lines; assay: Cell growth inhibition assay (Cell Titer Glo, 72 h, 9 doses; GI50, TGI, LC50); type: cell-based, human; conditions: value is the negative log10 of mol/L
[2] = test system: luminal, basal, claudin-low and ERBB2AMP breast cancer cell lines; assay: Associations of clinically relevant subtypes and response (non-parametric ANOVA or t-test on GI50 ranks); type: cell-based, human
Procedure, shortened: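 Significance was set at FDR p<0.20 after combining p-values across three test sets. Subtype–response associations came from rank-based non-parametric ANOVA or t-tests on GI50. For three-class comparisons, post-hoc tests of each group against the rest identified the most sensitive group, with FDR correction.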

SMILES: O=c1[nH]c2ccccc2n1C1CCN(Cc2ccc(-c3nc4cc5[nH]cnc5cc4nc3-c3ccccc3)cc2)CC1 [Sigma AKT1-2 inhibitor]
- GI50 ([1]; AU565 cell line, censored GI50 values): 5.61
- GI50 ([1]; BT20 cell line, censored GI50 values): 5.00
- GI50 ([1]; BT474 cell line, censored GI50 values): 6.08
- GI50 ([1]; BT483 cell line, censored GI50 values): 6.08
- GI50 ([1]; CAMA1 cell line, censored GI50 values): 5.59
- GI50 ([1]; HCC38 cell line, censored GI50 values): 4.98
- GI50 ([1]; HCC70 cell line, censored GI50 values): 5.74
- GI50 ([1]; HCC1143 cell line, censored GI50 values): 4.87
- GI50 ([1]; HCC1187 cell line, censored GI50 values): 5.47
- GI50 ([1]; HCC1419 cell line, censored GI50 values): 6.03
- GI50 ([1]; HCC1428 cell line, censored GI50 values): 5.35
- GI50 ([1]; HCC1500 cell line, censored GI50 values): 4.89
- GI50 ([1]; HCC1806 cell line, censored GI50 values): 5.05
- GI50 ([1]; HCC1937 cell line, censored GI50 values): 5.00
- GI50 ([1]; HCC1954 cell line, censored GI50 values): 5.08
- GI50 ([1]; HCC2185 cell line, censored GI50 values): 5.75
- GI50 ([1]; HCC3153 cell line, censored GI50 values): 4.99
- GI50 ([1]; LY2 cell line, censored GI50 values): 5.77
- GI50 ([1]; MCF7 cell line, censored GI50 values): 5.78
- GI50 ([1]; MDAMB134VI cell line, censored GI50 values): 5.02
- GI50 ([1]; MDAMB175VII cell line, censored GI50 values): 5.51
- GI50 ([1]; MDAMB361 cell line, censored GI50 values): 6.05
- GI50 ([1]; MDAMB415 cell line, censored GI50 values): 4.95
- GI50 ([1]; MDAMB436 cell line, censored GI50 values): 4.47
- GI50 ([1]; MDAMB453 cell line, censored GI50 values): 5.73
- GI50 ([1]; MDAMB468 cell line, censored GI50 values): 5.01
- GI50 ([1]; SKBR3 cell line, censored GI50 values): 5.68
- GI50 ([1]; SUM52PE cell line, censored GI50 values): 5.81
- GI50 ([1]; SUM149PT cell line, censored GI50 values): 5.03
- GI50 ([1]; SUM159PT cell line, censored GI50 values): 5.17
- GI50 ([1]; SUM185PE cell line, censored GI50 values): 5.95
- GI50 ([1]; SUM225CWN cell line, censored GI50 values): 6.05
- GI50 ([1]; SUM1315MO2 cell line, censored GI50 values): 5.33
- GI50 ([1]; T47D cell line, censored GI50 values): 5.78
- GI50 ([1]; UACC812 cell line, censored GI50 values): 5.53
- GI50 ([1]; ZR75B cell line, censored GI50 values): 5.93
- GI50 ([1]; ZR751 cell line, censored GI50 values): 5.94
- GI50 ([1]; cell line AU565): 5.61
- GI50 ([1]; cell line BT20): 5.00
- GI50 ([1]; cell line BT474): 6.08
- GI50 ([1]; cell line BT483): 6.08
- GI50 ([1]; cell line CAMA1): 5.59
- GI50 ([1]; cell line HCC38): 4.98
- GI50 ([1]; cell line HCC70): 5.74
- GI50 ([1]; cell line HCC1143): 4.87
- GI50 ([1]; cell line HCC1187): 5.47
- GI50 ([1]; cell line HCC1419): 6.03
- GI50 ([1]; cell line HCC1428): 5.35
- GI50 ([1]; cell line HCC1500): 4.89
- GI50 ([1]; cell line HCC1806): 5.05
- GI50 ([1]; cell line HCC1937): 5.00
- GI50 ([1]; cell line HCC1954): 5.08
- GI50 ([1]; cell line HCC2185): 5.75
- GI50 ([1]; cell line HCC3153): 4.99
- GI50 ([1]; cell line LY2): 5.77
- GI50 ([1]; cell line MCF7): 5.78
- GI50 ([1]; cell line MDAMB134V): 5.02
- GI50 ([1]; cell line MDAMB175V): 5.51
- GI50 ([1]; cell line MDAMB361): 6.05
- GI50 ([1]; cell line MDAMB415): 4.95
- GI50 ([1]; cell line MDAMB436): 4.47
- GI50 ([1]; cell line MDAMB453): 5.73
- GI50 ([1]; cell line MDAMB468): 5.01
- GI50 ([1]; cell line SKBR3): 5.68
- GI50 ([1]; cell line SUM52PE): 5.81
- GI50 ([1]; cell line SUM149PT): 5.03
- GI50 ([1]; cell line SUM159PT): 5.17
- GI50 ([1]; cell line SUM185PE): 5.95
- GI50 ([1]; cell line SUM225CWN): 6.05
- GI50 ([1]; cell line SUM1315MO): 5.33
- GI50 ([1]; cell line T47D): 5.78
- GI50 ([1]; cell line UACC812): 5.53
- GI50 ([1]; cell line ZR75B): 5.93
- GI50 ([1]; cell line ZR751): 5.94
- subtype-specific response (sensitivity by transcriptional subtype) ([2]; GI50 across subtypes): highest in luminal and ERBB2^AMP and lower in basal and claudin-low breast cancer cell lines; also recorded: Luminal and ERBB2AMP cell lines preferentially respond
- Subtype specificity ([2]; Table 6, most sensitive subtype, FDR p<0.20): Luminal/ERBB2AMP
